In patent EP0961591B1, “METHOD TO ENHANCE TISSUE AC[…] RADIOLABELED COMPOUNDS” (BOARD OF SUPERVISORS OF LOUISIANA STATE UNIVERSITY AND …, priority 1997, dated 1999):

Assays:
SKNSH = assay: Peptide binding and internalization assay; parameters: species or system human
Text: The cells included: (1) IMR-32 (ATCC No. CCL-127), a human neuroblastoma cell line with a very high expression level of somatostatin receptors (SST), predominantly SST-2; (2) SKNSH (ATCC No. HTB-11), a human neuroblastoma bone marrow metastatic cell that lacks somatostatin receptors as defined by either a binding assay or reverse transcriptase-polymerase chain reaction (RTPCR); and (3) SK-R2, a SKNSH-derived cell line transfected with the gene for the SST-2 receptor. The IMR-32 and the SK-R2 cells express somatostatin receptors type 2 (SST-2). […] Cell lines were obtained from the ATCC (IMR-32 and SKNSH) or from Ohio State University (Columbus, Ohio) (SK-R2). All cells lines were maintained in 5% CO2 at 37°C in media defined by the suppliers of the cell lines.
(§1) Cells were harvested, counted with a hemocytometer, and resuspended in binding buffer (Minimum Essential Medium (MEM), 10 mM Hepes, 0.01% BSA). A standard assay used 500,000 cells in 1 ml of binding buffer. Radioactive ligand alone (500,000 cpm), or in combination with at least 1,000-fold molar excess (10^-6 M) non-radioactive compound (to calculate specific binding), was added to a final volume of 1 ml. At the termination of the experiment, the incubation medium was removed, the cells were rinsed twice with Hanks balanced salt solution (HBSS), and the radioactivity in the cells determined using a gamma counter. This level of radioactivity represents total binding, which includes both membrane-bound and internalized fractions. Specific binding was determined by calculating the difference in the levels of measured radioactivity without the unlabeled competitor minus the radioactivity with the unlabeled competitor.
(§2) To differentiate between membrane and intracellular binding, cells were subsequently incubated for 10 min at 4°C with acidified HBSS (pH=4-5), rinsed in HBSS, and the radioactivity again determined using the gamma counter. Since the acid wash preferentially released the radioactive ligand from the external surface of the cell, remaining radioactivity was attributed to internalized fractions. Membrane-associated binding was then calculated as the difference between the total binding and internalized fractions.
(§3) The assay methods were as described in Example 2.

[1] = system: neuroendocrine cancers expressing the somatostatin receptor; assay: Pilot clinical trial of monthly 180 mCi doses; type: in vivo, human; settings: ten patients
Method: For six months, pilot clinical trials were conducted in ten human patients with progressive metastatic indolent and symptomatic neuroendocrine cancers expressing the somatostatin receptor. […] The first monthly dose was a bolus injection of 180 mCi. The second monthly dose was infusion of 180 mCi over 72 hr. The third monthly dose was infusion of 180 mCi over 24 hr. Thereafter, all monthly doses were infusion of 180 mCi over 24 hr. Clinical benefits (as evidenced by reduced pain, weight gain, reduced malaise, etc.) occurred in 6 of the 10 neuroendocrine (carcinoid/islet cell) patients. Partial radiographic responses (greater than 50% reduction in the product of perpendicular tumor diameters) occurred in 2 patients, and significant tumor necrosis developed in 7 of the 10 neuroendocrine patients. Treatment-related toxicity included 2 Grade III platelet, 1 Grade II WBC, 1 Grade I WBC and 2 Grade I Hb on the NCI (National Cancer Institute) grading scale.

SK-R2 = assay: Peptide binding and internalization assay; parameters: species or system human
Method: (§4) Cell lines were obtained from the ATCC (IMR-32 and SKNSH) or from Ohio State University (Columbus, Ohio) (SK-R2). All cells lines were maintained in 5% CO2 at 37°C in media defined by the suppliers of the cell lines.
as §1, §2, §3

IMR-32 = assay: Peptide binding and internalization assay; parameters: species or system human
Method: as §4, §1, §2
The times for ligand binding and internalization were analyzed using the standard assay methods described above. […] The first series of experiments used IMR-32 cells that were exposed to a radioligand for varying periods of time (up to 72 hr). The incubation media was replaced at least every 48 hr.
as §3

[2] = NCI grading scale, monthly 180 mCi doses
[3] = SKR-2, competitor octreotide acetate
[4] = IMR-32, competitor octreotide acetate
[5] = IMR-32 cells exposed to radioligand up to 72 hr

With “(^111In-DTPA-D-Phe^1)-octreotide [^111In-pentetreotide]” the “Total Binding (CPM ± SD), MEMBRANE” value (SKNSH; 1 CPM/cell) was 87 ± 114 CPM, the “Total Binding (CPM ± SD), TOTAL” value (SKNSH; 1 CPM/cell) was 861 ± 30 CPM and the “Total Binding (CPM ± SD), INTRACELLULAR” value (SKNSH; 1 CPM/cell, after acid wash) was 775 ± 107 CPM. The “Specific Binding (CPM), INTRACELLULAR” value (SKNSH; competitor octreotide acetate) was 0 CPM, the “Specific Binding (CPM), MEMBRANE” value (SKNSH; competitor octreotide acetate) was 0 CPM and the “Treatment-related toxicity: Grade I Hb” value [1, 2] was 2. The “Treatment-related toxicity: Grade I WBC” value [1, 2] was 1, the “Treatment-related toxicity: Grade II WBC” value [1, 2] was 1 and the “Treatment-related toxicity: Grade III platelet” value [1, 2] was 2. For the same substance, the “Clinical benefits (reduced pain, weight gain, reduced malaise, etc.)” value ([1]; monthly 180 mCi doses (bolus, then infusion over 72 hr, then 24 hr)) was 6 of the 10, the “Partial radiographic responses (greater than 50% reduction in the product of perpendicular tumor diameters)” value ([1]; monthly 180 mCi doses) was 2 patients and the significant tumor necrosis ([1]; monthly 180 mCi doses) was 7 of the 10. The “binding associated with the plasma membrane” value (SK-R2; SK-R2 cell line) was 95%, the “Total Binding (CPM ± SD), MEMBRANE” value (SK-R2; SKR-2, 1 CPM/cell) was 33,655 ± 2,728 CPM and the “Total Binding (CPM ± SD), TOTAL” value (SK-R2; SKR-2, 1 CPM/cell) was 36,261 ± 2,085 CPM. The “Total Binding (CPM ± SD), INTRACELLULAR” value (SK-R2; SKR-2, 1 CPM/cell, after acid wash) was 2,607 ± 672 CPM, the Kd (SK-R2; SKR-2, Scatchard plot analysis, read-out: Kd (apparent dissociation constant)) was 1 nM and the “Specific Binding (CPM), INTRACELLULAR” value (SK-R2; [3]) was 1,792 CPM. The “Specific Binding (CPM), MEMBRANE” value (SK-R2; [3]) was 33,683 CPM, the “Specific Binding (CPM), TOTAL” value (SK-R2; [3]) was 35,475 CPM and the “Total Binding (CPM ± SD), MEMBRANE” value (IMR-32; IMR-32, 1 CPM/cell) was 2,373 ± 417 CPM. For the same substance, the “Total Binding (CPM ± SD), TOTAL” value (IMR-32; IMR-32, 1 CPM/cell) was 4,780 ± 928 CPM, the “Total Binding (CPM ± SD), INTRACELLULAR” value (IMR-32; IMR-32, 1 CPM/cell, after acid wash) was 2,408 ± 51 CPM and the Kd (IMR-32; IMR-32, Scatchard plot analysis, read-out: Kd (apparent dissociation constant)) was 4 nM. For the same substance, the “Specific Binding (CPM), INTRACELLULAR” value (IMR-32; [4]) was 1.536 CPM, the “Specific Binding (CPM), MEMBRANE” value (IMR-32; [4]) was 2,372 CPM and the “Specific Binding (CPM), TOTAL” value (IMR-32; [4]) was 3,908 CPM. For the same substance, the “fractions of total radioactivity incorporated into the cell” value (IMR-32; [5]) was 40-75% and the “time of maximal binding” value (IMR-32; [5]) was 48 to 72 h.
